Earlier results as cited in patent publication US20110275591A1, “COCKTAIL FOR MODULATION OF ALZHEIMER'S DISEASE” (Concourse Health Sciences LLC, priority 2004, published 2011).

Columns and labels:
[1] = test system: SAMP8 mouse; conditions: for cognition in T-maze footshock avoidance paradigm and lever press appetitive task: chronic administration
[2] = test system: primary neurons of rat cerebral cortex; conditions: MTT and propidium iodide assays
[3] = test system: children with autistic spectrum disorders; conditions: 8-week study; all p<0.05
[4] = test system: patients with probable AD; conditions: after 3 and 6 months of treatment; significant differences only for a subset of cognitive tasks
[5] = test system: Alzheimer transgenic mice; conditions: dietary curcumin
[6] = test system: diabetic rats
[7] = test system: cultured hippocampal neurons
[8] = co-treatment during 48-hour Aβ exposure, vs controls with no EGCG

Compound: O=C(O)CCCCC1CCSS1 (stereo not drawn) [ALA, Alpha lipoic acid]
- indexes of oxidative stress (protein carbonyls, TBARS, W/S ratio of MAL-6) ([1]; 12-month-old SAMP8 mice): reversed all three indexes of oxidative stress
- cognition in T-maze footshock avoidance paradigm and lever press appetitive task ([1]; 12-month-old SAMP8 mice): improved cognition
- protection against cytotoxicity induced by Aβ peptide ([2]; Aβ peptide 30 microM): protected cortical neurons against cytotoxicity
- protection against cytotoxicity induced by H2O2 ([2]; H2O2 100 microM): protected cortical neurons against cytotoxicity

Compound: NCCC(=O)N[C@@H](Cc1cnc[nH]1)C(=O)O [L-carnosine, b-alanyl-L-histidine]
- Gilliam Autism Rating Scale and Receptive One-Word Picture Vocabulary test [3]: statistically significant improvements

Compound: CC(=O)N[C@@H](CS)C(=O)O [NAC, N-Acetylcysteine, reference compound]
- cognition in T-maze footshock avoidance paradigm and lever press appetitive task ([1]; 12-month-old SAMP8 mice): improved cognition
- blood-brain barrier passage ([1]; SAMP8 mice): crossed the blood-brain barrier and accumulated in the brain
- efficacy outcome measures (cognitive tasks) [4]: beneficial results on nearly every outcome measure

Compound: COc1cc(/C=C/C(=O)CC(=O)/C=C/c2ccc(O)c(OC)c2)ccc1O [curcumin, Curcumin]
- levels of interleukin-1 beta [5]: decreased levels
- levels of oxidized proteins [5]: decreased levels
- microgliosis [5]: suppression
- lipid peroxidation products (indicators of oxidative stress) ([6]; curcumin fed rats): significant reduction
- accumulation of advanced glycation endproducts ([6]; dietary curcumin 200 mg/kg body weight, vs control diabetic rats without curcumin): prevents the accumulation

Compound: Epigallocatechin-3-gallate [EGCG]
- cell survival ([7]; Aβ-exposed neurons, vs controls): increased survival
- levels of caspase C [7, 8]: decreased
- levels of malondiadehyde [7, 8]: decreased
